Where “and” joins values, the source holds several entries; their conditions need not be identical. Equal values may be shown once. Where a name gives a salt, the structure may show the parent alone. Read-outs that look alike come from different tables or passages of the source.
Assays:
[1] = target: T1, activated human C1 (Homo sapiens, UniProt P09871); assay: Test Code 026 (C1 inhibitor); assay type: biochemical; settings: twofold serial dilutions; higher well number indicates higher activity
T1 sequence (P09871 438-688 limits assumed): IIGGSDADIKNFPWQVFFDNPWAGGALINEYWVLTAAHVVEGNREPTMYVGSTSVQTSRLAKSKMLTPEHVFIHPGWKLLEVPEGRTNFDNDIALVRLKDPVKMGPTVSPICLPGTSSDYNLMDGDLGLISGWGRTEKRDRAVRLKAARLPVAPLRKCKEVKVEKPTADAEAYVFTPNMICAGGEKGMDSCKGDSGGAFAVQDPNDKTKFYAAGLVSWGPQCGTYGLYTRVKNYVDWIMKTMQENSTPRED
T1 sequence (P09871 16-437 limits assumed): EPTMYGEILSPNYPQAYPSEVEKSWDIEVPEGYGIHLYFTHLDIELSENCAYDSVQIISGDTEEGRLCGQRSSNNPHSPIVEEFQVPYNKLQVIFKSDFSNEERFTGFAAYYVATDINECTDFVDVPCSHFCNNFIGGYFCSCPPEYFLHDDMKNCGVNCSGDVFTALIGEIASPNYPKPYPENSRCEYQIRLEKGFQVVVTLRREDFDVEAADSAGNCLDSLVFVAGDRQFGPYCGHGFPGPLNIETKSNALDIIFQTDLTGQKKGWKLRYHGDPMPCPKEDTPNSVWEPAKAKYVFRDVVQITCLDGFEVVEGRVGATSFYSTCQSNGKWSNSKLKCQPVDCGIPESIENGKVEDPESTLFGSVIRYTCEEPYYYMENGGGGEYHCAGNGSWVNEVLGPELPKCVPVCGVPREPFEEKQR
Method: (§1) An active inhibitor protects C2 from C1 and C4; (ii) Cap 50 Test--Here, appropriate amounts of the test compound are added to a pool of guinea pig serum in vitro, after which the undiluted serum capillary tube assay referred to above is run. The concentration of compound inhibiting 50% is reported; and (iii) Guinea Pig Intraperitoneal Test (GPIP)--Guinea pigs weighing about 300 g. are dosed intraperitoneally (i.p.) with 200 mg./kg. of the test compound dissolved in saline and adjusted to pH 7-8. Approximately 0.4 ml. blood samples, taken by orbital sinus puncture 30 minutes and one hour after injections, are collected directly into centrifuge tubes; 5 ml. blood samples, taken by decapitation 2 hours after injection are collected directly into beakers. The samples are allowed to clot, centrifuged, and the resultant sera are assayed for complement activity using the capillary complement assay. Percent inhibition are calculated by comparison with simultaneous controls.

[2] = test system: complement activity of sera; assay: Guinea Pig Intraperitoneal Test (GPIP); settings: Cavia porcellus, ip, 200 mg./kg. i.p., read-out: In Vivo Activity (Guinea Pig) Intraperitoneal % Inhibition
Method: as §1, with “[…],” for “taken by orbital sinus puncture 30 minutes and one hour after injections,”, “taken by decapitation 2 hours after injection are collected directly into” left out

## CCOC(=O)COc1cc(OS(=O)(=O)O)c2c(=O)c(O[C@@H]3O[C@H](CO[C@@H]4O[C@@H](C)[C@H](OS(=O)(=O)O)[C@@H](OS(=O)(=O)O)[C@H]4OS(=O)(=O)O)[C@@H](OS(=O)(=O)O)[C@H](OS(=O)(=O)O)[C@H]3OS(=O)(=O)O)c(-c3ccc(OS(=O)(=O)O)c(OS(=O)(=O)O)c3)oc2c1 [7-O-Carbethoxymethyl-rutin nona(H-sulfate)sodium salt]
[1]
  In vitro Activity 026 (activity in wells, serial dilution assay): 12 wells and 10 wells
[2]; Time 2 hours
  inhibition at 200 mg/kg: 39%
[2]; Time 6 hours
  inhibition at 200 mg/kg: 43%
[2]; Time 24 hours
  inhibition at 200 mg/kg: 55%
